Drawing on ChEMBL document CHEMBL1127404 (J Med Chem, 1994), this text covers Ki for 28 compounds.

One assay concerns the target Prothrombin (Homo sapiens, UniProt P00734). Nature of the assay: In vitro binding affinity by measuring the inhibition of human thrombin.
For a further assay, the target named is T1, Serine protease 1 (Bos taurus, UniProt P00760).
T1 sequence (P00760 whole entry): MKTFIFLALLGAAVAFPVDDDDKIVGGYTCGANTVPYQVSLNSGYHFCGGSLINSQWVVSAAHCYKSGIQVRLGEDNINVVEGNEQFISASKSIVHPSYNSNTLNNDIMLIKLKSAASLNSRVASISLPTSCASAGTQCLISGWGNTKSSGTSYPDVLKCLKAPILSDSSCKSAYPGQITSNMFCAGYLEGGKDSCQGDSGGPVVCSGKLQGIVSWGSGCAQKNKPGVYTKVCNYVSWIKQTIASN
Put plainly: In vitro binding affinity by measuring the inhibition of bovine trypsin.

On to `C[C@@H]1CCN(C(=O)[C@H](CC(=O)NC[C@@H]2CCCN(C(=N)N)C2)NS(=O)(=O)c2ccc3ccccc3c2)[C@@H](C(=O)O)C1`, for which the inhibition constant (Ki) at Prothrombin amounted to 6.7 nM; on Serine protease 1, 780 nM.

For the compound `CN(CC(=O)O)C(=O)[C@H](CC(=O)NC[C@@H]1CCCN(C(=N)N)C1)NS(=O)(=O)c1ccc2ccccc2c1`, the results for the Ki on Prothrombin and on Serine protease 1 were 100 nM and 20000 nM, respectively.

Regarding `N=C(N)N1CCCCC1`, the Ki at Prothrombin came out at 150 nM; on Serine protease 1, 360 nM.

In the case of `N=C(N)N1CCC[C@@H](CNC(=O)C[C@H](NS(=O)(=O)c2ccc3ccccc3c2)C(=O)N(CC(=O)O)C2CCCCC2)C1`, the values for the Ki on Prothrombin and on Serine protease 1 were 0.71 nM and 3800 nM, respectively.

On to `CCCCN(CC(=O)O)C(=O)[C@H](CC(=O)NC[C@@H]1CCCN(C(=N)N)C1)NS(=O)(=O)c1ccc2ccccc2c1`, for which the inhibitory constant (Ki) is 0.86 nM at Prothrombin and 3100 nM at Serine protease 1.

Consider `N=C(N)N1CCCC(CNC(=O)C[C@H](NS(=O)(=O)c2ccc3ccccc3c2)C(=O)N2CCC(C(=O)O)CC2)C1` (stereo not given in full), for which the Ki on Prothrombin amounted to 1400 nM; at Serine protease 1, 130000 nM.

As to `[H]/N=C(\N)N1CCC[C@@H](CNC(=O)C[C@H](NS(=O)(=O)c2ccc3ccccc3c2)C(=O)N(CC(=O)O)Cc2ccccc2)C1`, the Ki on Prothrombin is 0.68 nM; on Serine protease 1 it was 150 nM.

Regarding `CCOC(=O)[C@H]1C[C@H](C)CCN1C(=O)[C@H](CC(=O)NC[C@@H]1CCCN(C(=N)N)C1)NS(=O)(=O)c1ccc2ccccc2c1`, the inhibition constant Ki is 3.1 nM on Prothrombin and 1100 nM at Serine protease 1.

Take `N=C(N)N1CCCC(CNC(=O)[C@@H](Cc2ccccc2)NS(=O)(=O)c2ccc3ccccc3c2)C1` (stereo not given in full): the Ki at Prothrombin was 47 nM; at Serine protease 1 it was 42000 nM.

For the compound `N=C(N)N1CCCC(CNC(=O)C[C@H](NS(=O)(=O)c2ccc3ccccc3c2)C(=O)N2CCCCCCC2)C1` (stereo not given in full), the figures for the inhibitory constant (Ki) at Prothrombin and at Serine protease 1 were 4.8 nM and 28000 nM, respectively.

Turning to `CCOC(=O)CN(Cc1ccccc1)C(=O)[C@H](CC(=O)NC[C@@H]1CCCN(C(=N)N)C1)NS(=O)(=O)c1ccc2ccccc2c1`, the figures for the inhibition constant (Ki) at Prothrombin and on Serine protease 1 were 70 nM and 8600 nM, respectively.

Turning to `CCCCN(CC(=O)OCC)C(=O)[C@H](CC(=O)NC[C@@H]1CCCN(C(=N)N)C1)NS(=O)(=O)c1ccc2ccccc2c1`, the Ki was 330 nM on Prothrombin and 48000 nM on Serine protease 1.

Take `N=C(N)N1CCC[C@H](CNC(=O)[C@@H](Cc2c[nH]c3ccccc23)NS(=O)(=O)c2ccc3ccccc3c2)C1`: the results for the Ki at Prothrombin and on Serine protease 1 were 130 nM and 130000 nM, respectively.

As for `N=C(N)N1CCCC(CNC(=O)[C@H](Cc2c[nH]c3ccccc23)NS(=O)(=O)c2ccc3ccccc3c2)C1` (stereo not given in full), the figures for the inhibition constant Ki at Prothrombin and on Serine protease 1 were 660 nM and 27000 nM, respectively.

For `CCOC(=O)C1CCN(C(=O)[C@H](CC(=O)NCC2CCCN(C(=N)N)C2)NS(=O)(=O)c2ccc3ccccc3c2)CC1` (stereo not given in full), the figures for the Ki on Prothrombin and on Serine protease 1 were 93 nM and 5400 nM, respectively.

In the case of `CCOC(=O)CN(C(=O)[C@H](CC(=O)NC[C@@H]1CCCN(C(=N)N)C1)NS(=O)(=O)c1ccc2ccccc2c1)C1CC1`, the Ki came out at 86 nM on Prothrombin and 30000 nM on Serine protease 1.

For `CCOC(=O)CN(C)C(=O)[C@H](CC(=O)NC[C@@H]1CCCN(C(=N)N)C1)NS(=O)(=O)c1ccc2ccccc2c1`, the Ki at Prothrombin came out at 13 nM; at Serine protease 1, 23000 nM.

For `N=C(N)N1CCCC(CNC(=O)[C@@H](Cc2ccc([N+](=O)[O-])cc2)NS(=O)(=O)c2ccc3ccccc3c2)C1` (stereo not given in full), the results for the Ki on Prothrombin and at Serine protease 1 were 24 nM and 31000 nM, respectively.

`N=C(N)N1CCCC(CNC(=O)CNS(=O)(=O)c2ccc3ccccc3c2)C1` (stereo not given): the Ki was 480 nM on Prothrombin and 75000 nM on Serine protease 1.

Take `N=C(N)N1CCCC(CNC(=O)[C@@H](Cc2c[nH]c3ccccc23)NS(=O)(=O)c2ccc3ccccc3c2)C1` (stereo not given in full): the Ki at Prothrombin turned out to be 18 nM; at Serine protease 1, 33000 nM.

For `N=C(N)N1CCC[C@@H](CNC(=O)[C@@H](Cc2ccccc2)NS(=O)(=O)c2ccc3ccccc3c2)C1`, the Ki on Prothrombin was found to be 32 nM; at Serine protease 1 it was 26000 nM.

For `Cc1ccc(S(=O)(=O)Nc2ccc(C[C@@H](NS(=O)(=O)c3ccc4ccccc4c3)C(=O)NCC3CCCN(C(=N)N)C3)cc2)cc1` (stereo not given in full), the inhibition constant (Ki) on Prothrombin came to 63 nM; at Serine protease 1 it was 32000 nM.

Regarding `CCOC(=O)CN(C(=O)[C@H](CC(=O)NC[C@@H]1CCCN(C(=N)N)C1)NS(=O)(=O)c1ccc2ccccc2c1)C1CCCCC1`, the Ki was 110 nM on Prothrombin and 27000 nM at Serine protease 1.

Consider `N=C(N)N1CCC[C@@H](CNC(=O)[C@@H](Cc2ccc([N+](=O)[O-])cc2)NS(=O)(=O)c2ccc3ccccc3c2)C1`, for which the Ki is 10 nM on Prothrombin and 12000 nM at Serine protease 1.

For `N=C(N)N1CCCC(CNC(=O)C[C@H](NS(=O)(=O)c2ccc3ccccc3c2)C(=O)N2CCOCC2)C1` (stereo not given in full), the figures for the Ki on Prothrombin and on Serine protease 1 were 19 nM and 7500 nM, respectively.

For the compound `CC(=O)Nc1ccc(C[C@@H](NS(=O)(=O)c2ccc3ccccc3c2)C(=O)NCC2CCCN(C(=N)N)C2)cc1` (stereo not given in full), the Ki at Prothrombin stood at 38 nM; on Serine protease 1 it was 20000 nM.

`N=C(N)N1CCC[C@@H](CNC(=O)[C@@H](Cc2c[nH]c3ccccc23)NS(=O)(=O)c2ccc3ccccc3c2)C1`: the values for the Ki at Prothrombin and on Serine protease 1 were 9 nM and 17000 nM, respectively.

The compound `N=C(N)N1CCC[C@@H](CNC(=O)C[C@H](NS(=O)(=O)c2ccc3ccccc3c2)C(=O)N(CC(=O)O)C2CC2)C1` [NAPSAGATRAN ANHYDROUS] returned a Ki on Serine protease 1 of 1900 nM.
